The numbers were not newly measured in US12097195B2, “Pharmaceutical composition containing alkynyl compound and preparation method and application thereof” (ASCENTAGE PHARMA (SUZHOU) CO., LTD., priority 2019, dated 2024), which cites them from elsewhere.

For `Cc1ccc(C(=O)Nc2ccc(CN3CCN(C)CC3)c(C(F)(F)F)c2)cc1C#Cc1cnc2[nH]ncc2c1` [alknyl compound, 3-((1H-pyrazolo[3,4-b]pyridin-5-yl)ethynyl)-4-methyl-N-(4-((4-methylpiperazin-1-yl)methyl)-3-(trifluoromethyl)phenyl)-benzamide], the inhibition rate entry in the data set on acute leukemia MOLT and with chronic leukemia K562 was “very good inhibition rate” throughout.
